17 compounds from patent publication US11571416B2, “Amodiaquine analogs and methods of uses thereof” (priority 2017, dated 2023) can be followed below.

Each structure is given as a SMILES string.

For data set [1], the system named is EBOV-GFP (recombinant Ebolavirus encoding a GFP reporter gene). Nature of the data set: microbe, parasite or virus in culture. Type of data set: cell-based. Particulars: for IC50: Orthoebolavirus.
Data set [2] can be described thus: Cytotoxicity, CellTiter-Glo Luminescent Cell Viability Assay. Particulars: human, Huh7 cells.

For `C#CCN(CC#C)Cc1cc(Nc2ccnc3cc(Cl)ccc23)ccc1O` [Compound 1, 4-(7-chloroquinolin-4-ylamino)-2-bis(2-propyne-1-yl)aminomethylphenol], the “antiviral activity / potency in words” value in data set [1] is “reduced antiviral activity”. Besides, the IC50 in data set [1] (Huh-7, 24 h) was 5.78 ± 1.49 µM.
Consider `CCN(CC)Cc1cc(Nc2ccnc3cc(C(F)(F)F)ccc23)ccc1O` [Compound 2], for which, in data set [1] (Huh-7, 24 h), the IC50 is 5.87 ± 1.46 µM.
Take `CN(Cc1cc(Nc2ccnc3cc(Cl)ccc23)ccc1O)c1ccccc1` [Compound 3]: the “antiviral activity / potency in words” value in data set [1] is “reduced antiviral activity”. The IC50 in data set [1] (Huh-7, 24 h) is 6.39 ± 0.93 µM.
For the compound `CCN(CC)Cc1cc(Nc2ccnc3cc(Br)ccc23)ccc1O` [Compound 4, 4-(7-bromoquinolin-4-ylamino)-2-diethylamino-methylphenol], the “fold potency relative to amodiaquine” value in data set [1] is 1.4 fold. Further, in data set [1] (Huh-7, 24 h), the concentration for half-maximal inhibition (IC50) amounted to 1.55 ± 0.14 µM.
Regarding `CCN(CC)Cc1cc(Nc2ccnc3cc(F)ccc23)ccc1O` [Compound 5, 4-(7-fluoroquinolin-4-ylamino)-2-diethylaminomethylphenol], in data set [1], the “antiviral activity / potency in words” value was “weaker than amiodiaquine”. Further, in data set [1] (Huh-7, 24 h), the IC50 was found to be 2.78 ± 0.28 µM.
As to `CCN(CC)Cc1cc(Nc2c3ccccc3nc3ccccc23)ccc1O` [Compound 6, 4-(9-acridinylamino)-2-[(diethylamino)methyl]phenol], the IC50 in data set [1] (Huh-7, 24 h) was 1.64 ± 0.22 µM.
Turning to `CC(C)N(C)Cc1cc(Nc2ccnc3cc(Cl)ccc23)ccc1O` [Compound 8, 4-(7-chloroquinolin-4-ylamino)-2-(isopropylmethylamino)methylphenol], in data set [1], the Selectivity index came out at 27. Moreover, the concentration for half-maximal inhibition (IC50) was found to be 1.46 µM in data set [1] (Huh-7) and 1.46 ± 0.14 µM in data set [1] (Huh-7, 24 h). Moreover, it took 39.2 µM to reach half-maximal cytotoxicity in data set [2] (CC50 at 24 h).
For `CC(C)(C)NCc1cc(Nc2ccnc3cc(Cl)ccc23)ccc1O` [Compound 9, 4-(7-chloroquinolin-4-ylamino)-2-tert-butylaminomethylphenol], in that order: 22, 1.21 µM, 1.21 ± 0.09 µM and 26.1 µM.
Consider `CN(C)Cc1cc(Nc2ccnc3cc(Cl)ccc23)ccc1O` [Compound 10, 4-(7-chloroquinolin-4-ylamino)-2-dimethylaminomethylphenol], for which the concentration for half-maximal inhibition (IC50) in data set [1] (Huh-7, 24 h) turned out to be 2.14 ± 0.21 µM.
Turning to `CCN(CC)Cc1cc(Nc2ccnc3ccccc23)ccc1O` [Compound 12, 2-[(diethylamino)methyl]-4-(quinolin-4-ylamino)phenol], in data set [1] (Huh-7, 24 h), the IC50 was determined as 2.14 ± 0.18 µM.
On to `CN1CCN(Cc2cc(Nc3ccnc4cc(Cl)ccc34)ccc2O)CC1` [Compound 13, 4-(7-chloroquinolin-4-ylamino)-2-(4-methyl-1-piperazinyl)methylphenol], for which, in data set [1], the “antiviral activity / potency in words” value is recorded as “did not decrease potency”. Moreover, the IC50 in data set [1] (Huh-7, 24 h) worked out at 1.68 ± 0.19 µM.
As to `CCN(C)Cc1cc(Nc2ccnc3cc(Cl)ccc23)ccc1O` [Compound 16, 4-(7-chloroquinolin-4-ylamino)-2-(ethylmethylamino)methylphenol], the IC50 in data set [1] (Huh-7, 24 h) came out at 2.08 ± 0.22 µM.
`CCN(CCO)Cc1cc(Nc2ccnc3cc(Cl)ccc23)ccc1O` [Compound 17, 4-(7-chloroquinolin-4-ylamino)-2-[ethyl(2-hydroxyethyl)amino]methylphenol]: the “antiviral activity / potency in words” value in data set [1] is on record as “did not decrease potency”. In data set [1] (Huh-7, 24 h), the concentration for half-maximal inhibition (IC50) is 1.77 ± 0.18 µM.
For `Oc1ccc(Nc2ccnc3cc(Cl)ccc23)cc1CN1CCCC(O)C1` (stereo not shown) [Compound 19, 4-(7-chloroquinolin-4-ylamino)-2-(3-hydroxy-1-piperidinyl)methylphenol], in that order: “did not decrease potency” and 1.8 ± 0.28 µM.
Take `Oc1ccc(Nc2ccnc3cc(Cl)ccc23)cc1CN1CC[C@@H](O)C1` [Compound 22]: the “antiviral activity / potency in words” value in data set [1] is given as “did not decrease potency”. The 50% inhibitory concentration (IC50) in data set [1] (Huh-7, 24 h) was 1.73 ± 0.09 µM.
Consider `Oc1ccc(Nc2ccnc3cc(Cl)ccc23)cc1CN1CCOCC1` [Compound 24], for which the IC50 in data set [1] (Huh-7, 24 h) amounted to 6.03 ± 0.41 µM.
In the case of `C=CCN(CC=C)Cc1cc(Nc2ccnc3cc(Cl)ccc23)ccc1O` [Compound 27, 4-(7-chloroquinolin-4-ylamino)-2-bis(2-propen-1-yl)aminomethylphenol], the concentration for half-maximal inhibition (IC50) in data set [1] (Huh-7, 24 h) is 2.32 ± 0.32 µM.

By IC50 is commonly meant the concentration needed to halve the response being measured. Usually CC50 stands for the concentration at which the toxic effect on the cells reaches its halfway point. Higher therefore signals better tolerance by the cells.
